Source: ChEMBL document CHEMBL3871303, “In vivo and in silico anti-inflammatory mechanism of action of the semisynthetic (-)-cubebin derivatives (-)-hinokinin and (-)-O-benzylcubebin” (2017)

Experiments:
Type in all cases: functional
Rattus norvegicus [1] = assay: Antiinflammatory activity in Wistar rat assessed as inhibition of dextran-induced paw edema administered orally 30 mins prior to dextran treatment measured after 3 hrs
Rattus norvegicus [2] = assay: Antiinflammatory activity in Wistar rat assessed as inhibition of PGE2-induced paw edema at 10 mg/kg, po administered 30 mins prior to PGE2 treatment measured after 3 hrs
Rattus norvegicus [3] = assay: Antiinflammatory activity in Wistar rat assessed as inhibition of PGE2-induced paw edema at 40 mg/kg, po administered 30 mins prior to PGE2 treatment measured after 3 hrs
Rattus norvegicus [4] = assay: Antiinflammatory activity in Wistar rat assessed as inhibition of dextran-induced paw edema at 40 mg/kg, po administered 30 mins prior to dextran treatment measured after 3 hrs

CN1CCC(=C2c3ccccc3C=Cc3ccccc32)CC1 [CYPROHEPTADINE]
inhibition (INH) (Rattus norvegicus [1]): 56%

COc1ccc2c(c1)c(CC(=O)O)c(C)n2C(=O)c1ccc(Cl)cc1 [INDOMETHACIN]
inhibition in vivo at 10 mg/kg (Rattus norvegicus [2]): 54%

c1ccc(COC2OC[C@@H](Cc3ccc4c(c3)OCO4)[C@@H]2Cc2ccc3c(c2)OCO3)cc1 (stereo partly specified)
inhibition in vivo at 40 mg/kg (Rattus norvegicus [3]): 66%
inhibition in vivo at 40 mg/kg (Rattus norvegicus [4]): 3.5%

O=C1OC[C@@H](Cc2ccc3c(c2)OCO3)[C@@H]1Cc1ccc2c(c1)OCO2
inhibition in vivo at 40 mg/kg (Rattus norvegicus [3]): 59.2%
inhibition in vivo at 40 mg/kg (Rattus norvegicus [4]): 18.3%
